Measured values reported in ChEMBL document CHEMBL4043103, “Design, synthesis, and biological evaluation of some novel indolizine derivatives as dual cyclooxygenase and lipoxygenase inhibitor for anti-inflammatory activity” (Bioorg Med Chem, 2017).

Experiments:
[1] = test system: Rattus norvegicus; assay: Anti inflammatory activity in carrageenan-induced Wistar rat paw edema model assessed as inhibition of left hind paw edema size at 10 mg/kg, po pretreated for 1 hr followed by carrageenan challenge measured after 6 hrs by plethysmometry method (reference value: 0%); assay type: functional
[2] = test system: Rattus norvegicus; assay: Anti inflammatory activity in carrageenan-induced Wistar rat paw edema model assessed as inhibition of left hind paw edema size at 10 mg/kg, po pretreated for 1 hr followed by carrageenan challenge measured after 2 hrs by plethysmometry method (reference value: 0%); assay type: functional
[3] = species: Rattus norvegicus; assay: Gastrointestinal toxicity in adjuvant-induced Wistar rat arthritis model assessed as ulcer index treated for 7 days measured on day 21 post arthritis induction; settings: in vivo, 168 h
[4] = test system: Rattus norvegicus; assay: Anti inflammatory activity in carrageenan-induced Wistar rat paw edema model assessed as inhibition of left hind paw edema size at 10 mg/kg, po pretreated for 1 hr followed by carrageenan challenge measured after 4 hrs by plethysmometry method (reference value: 0%); assay type: functional
[5] = Inhibition of soybean lipoxygenase preincubated for 5 mins followed by linoleic acid substrate addition measured after 20 mins by spectrophotometric method; design: species or system Glycine max
[6] = target: T1, Prostaglandin G/H synthase 1 (Ovis aries, UniProt P05979)
T1 sequence (P05979 whole entry): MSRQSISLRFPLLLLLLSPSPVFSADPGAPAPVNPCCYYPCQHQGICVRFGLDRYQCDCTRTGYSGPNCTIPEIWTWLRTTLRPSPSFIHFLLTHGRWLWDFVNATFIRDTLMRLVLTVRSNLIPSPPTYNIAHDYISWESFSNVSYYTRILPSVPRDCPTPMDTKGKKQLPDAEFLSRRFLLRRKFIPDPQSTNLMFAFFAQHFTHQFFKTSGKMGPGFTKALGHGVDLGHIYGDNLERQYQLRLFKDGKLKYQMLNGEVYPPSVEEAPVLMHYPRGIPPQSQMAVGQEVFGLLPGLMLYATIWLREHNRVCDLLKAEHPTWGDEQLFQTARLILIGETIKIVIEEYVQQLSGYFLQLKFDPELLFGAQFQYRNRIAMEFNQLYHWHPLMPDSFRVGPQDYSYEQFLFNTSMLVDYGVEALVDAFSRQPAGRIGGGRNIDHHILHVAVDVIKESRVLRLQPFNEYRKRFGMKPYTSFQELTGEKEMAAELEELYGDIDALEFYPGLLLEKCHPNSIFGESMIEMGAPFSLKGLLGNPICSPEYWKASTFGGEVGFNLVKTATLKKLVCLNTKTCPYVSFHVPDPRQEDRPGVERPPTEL
Description: Inhibition of ovine COX-1 preincubated for 5 mins followed by arachidonic acid substrate addition by colorimetric enzyme immunoassay

[7] = n-Octanol-water partition coefficient, log P of the compound by shake-flask method; assay type: physicochemical
[8] = Solubility of the compound in ethanol by shake-flask method; assay type: physicochemical
[9] = species: Rattus norvegicus; assay: animal or person; settings: Wistar, po, read-out: INH
[10] = Solubility of the compound in methanol by shake-flask method; assay type: physicochemical
[11] = Solubility of the compound in DMSO by shake-flask method; assay type: physicochemical
[12] = species: Rattus norvegicus; assay: animal or person; settings: Wistar, po, read-out: INH; remark: listed apart in the source
[13] = species: Rattus norvegicus; assay: animal or person; settings: Wistar, po, read-out: INH; remark: listed apart in the source
[14] = species: Rattus norvegicus; assay: animal or person; settings: Wistar, po, read-out: INH; remark: listed apart in the source
[15] = Solubility of the compound in water by shake-flask method; assay type: physicochemical; settings: buffer
[16] = Solubility of the compound in acetone by shake-flask method; assay type: physicochemical
[17] = Solubility of the compound in chloroform by shake-flask method; assay type: physicochemical
[18] = test system: Rattus norvegicus; assay: Anti inflammatory activity in arachidonic acid-induced Wistar rat paw edema model assessed as inhibition of right hind paw edema thickness at 10 mg/kg, po pretreated for 30 mins followed by arachidonic acid challenge measured after 1 hr (reference value: 0%); assay type: functional
[19] = test system: RAW264.7; assay: Anti-inflammatory activity in mouse RAW264.7 cells assessed as reduction in LPS-induced NO production by Griess assay; assay type: functional, cell-based
[20] = target: T2, Prostaglandin G/H synthase 2 (Homo sapiens, UniProt P35354)
T2 sequence (P35354 whole entry): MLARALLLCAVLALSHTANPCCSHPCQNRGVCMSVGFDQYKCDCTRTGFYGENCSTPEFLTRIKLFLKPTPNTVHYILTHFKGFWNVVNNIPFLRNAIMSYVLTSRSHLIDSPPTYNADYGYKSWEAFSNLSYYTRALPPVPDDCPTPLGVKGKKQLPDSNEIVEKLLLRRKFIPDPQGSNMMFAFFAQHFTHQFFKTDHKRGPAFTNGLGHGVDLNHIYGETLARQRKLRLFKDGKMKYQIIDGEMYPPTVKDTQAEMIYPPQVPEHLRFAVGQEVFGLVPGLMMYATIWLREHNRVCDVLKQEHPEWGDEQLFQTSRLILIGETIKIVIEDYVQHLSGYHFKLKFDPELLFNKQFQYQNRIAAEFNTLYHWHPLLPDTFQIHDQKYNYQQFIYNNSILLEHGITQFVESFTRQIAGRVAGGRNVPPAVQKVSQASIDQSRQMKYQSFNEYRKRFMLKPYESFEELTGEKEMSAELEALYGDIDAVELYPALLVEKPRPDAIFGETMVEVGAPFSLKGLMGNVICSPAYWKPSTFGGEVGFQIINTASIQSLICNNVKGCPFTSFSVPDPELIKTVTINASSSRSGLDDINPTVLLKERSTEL
Description: Inhibition of human COX-2 preincubated for 5 mins followed by arachidonic acid substrate addition by colorimetric enzyme immunoassay

[21] = Non noncompetitive inhibition of soybean lipoxygenase preincubated for 5 mins followed by substrate addition measured after 20 mins by Lineweaver-Burk plot analysis; design: species or system Glycine max
[22] = target: T2, Prostaglandin G/H synthase 2; assay: Non noncompetitive inhibition of human COX-2 preincubated for 5 mins followed by arachidonic acid substrate addition by Lineweaver-Burk plot analysis

SMILES | logP [7] | solubility [8] | solubility [10] | solubility [11] | solubility [15] | solubility [16] | solubility [17] | UI [3] | inhibition in vivo at 10 mg/kg [9] | inhibition in vivo at 10 mg/kg [12] | inhibition in vivo at 10 mg/kg [13] | inhibition in vivo at 10 mg/kg [14] | other results
O=C(O)Cc1ccccc1Nc1c(Cl)cccc1Cl [DICLOFENAC] |  |  |  |  |  |  |  | 46 |  |  |  |  | inhibition in vivo at 10 mg/kg [1]: 90.9%; inhibition in vivo at 10 mg/kg [2]: 74.6%; inhibition in vivo at 10 mg/kg [4]: 91.6%
CC1(C)Cc2c(-c3ccccc3)c(-c3ccc(Cl)cc3)c(CC(=O)O)n2C1 [LICOFELONE] |  |  |  |  |  |  |  |  |  |  |  |  | IC50 [5]: 0.21 µM; IC50 [6]: 0.16 µM
NCc1c(-c2ccc(F)cc2)c(C(=O)O)c2ccccn12 | 2.12 | Soluble | Soluble | Soluble | Soluble | Soluble | Insoluble |  | 89.5% | 61.5% | 69.8% | 86.4% | 
NCc1c(-c2ccc3c(c2)OCO3)c(C(=O)O)c2ccccn12 | 2.07 | Soluble | Soluble | Soluble | Soluble | Soluble | Insoluble |  | 74.4% | 23.1% | 61.9% | 78.1% | 
CC(c1cc2ccccc2s1)N(O)C(N)=O (stereo not given) [ZILEUTON] |  |  |  |  |  |  |  | 52 |  |  |  |  | IC50 [5]: 3.43 µM; inhibition in vivo at 10 mg/kg [18]: 72.3%
Cc1ccc(-c2cc(C(F)(F)F)nn2-c2ccc(S(N)(=O)=O)cc2)cc1 [CELECOXIB] |  |  |  |  |  |  |  | 53 |  |  |  |  | 
Cc1ccc2n1[C@@H]1[C@H]3O[C@]([C@H](C)O)(C=C2)[C@H]1c1cc([C@H]2C=Cc4ccc(C)n4[C@@H]2C)cn1[C@@H]3C |  |  |  |  |  |  |  |  |  |  |  |  | IC50 [19]: 5.31 µM
NCc1c(-c2ccc(C(F)(F)F)cc2)c(C(=O)O)c2ccccn12 | 2.06 | Soluble | Soluble | Soluble | Soluble | Soluble | Insoluble |  | 62.8% | 40% | 42.8% | 67.7% | 
CCCCc1c(C(=O)O)c2ccccn2c1CN | 2.07 | Soluble | Soluble | Soluble | Soluble | Soluble | Insoluble |  | 24.4% | 15.4% | 23.8% | 23.9% | 

Second part, led by results:

logP [7] | solubility [8] | solubility [10] | solubility [11] | solubility [15] | solubility [16] | solubility [17] | SMILES | UI [3] | inhibition in vivo at 10 mg/kg [9] | inhibition in vivo at 10 mg/kg [12] | inhibition in vivo at 10 mg/kg [13] | inhibition in vivo at 10 mg/kg [14] | other results
1.45 | Soluble | Soluble | Soluble | Soluble | Soluble | Insoluble | CCc1c(C(=O)O)c2ccccn2c1CN |  | 32.5% | 20.2% | 30.2% | 34.3% | 
0.72 | Soluble | Soluble | Soluble | Soluble | Soluble | Insoluble | Cc1c(C(=O)O)c2ccccn2c1CN |  | 44.2% | 23.1% | 41.3% | 38.5% | 
1.55 | Soluble | Soluble | Soluble | Soluble | Soluble | Insoluble | COc1cc(-c2c(C(=O)O)c3ccccn3c2CN)ccc1O |  | 63.9% | 36.9% | 50.8% | 59.4% | 
1.85 | Soluble | Soluble | Soluble | Soluble | Soluble | Insoluble | NCc1c(-c2ccccc2)c(C(=O)O)c2ccccn12 | 10 | 90.5% | 66.2% | 68.2% | 88.6% | IC50 [5]: 13.1 µM; IC50 [20]: 14.9 µM; Ki [21]: 0.72 µM; Ki [22]: 0.92 µM; IC50 [6]: > 50 µM
